Tested on: GPR120 null mice
Assay: IVGTT in female GPR120 null mice
Format: in vivo, mouse
Experimental: Lean female mice (body weight 20–25 g), were randomized on body weight and fasted 4 hours prior to the IVGTT. Metabolex-36 (100 mg/kg) was administered orally 60 min and AZ13581837 (35mg/kg) 30 min before the IVGTT ([…]). Control mice were given vehicle (0.5% HPMC, 0.1% Tween-80) at corresponding time points. The specificity of AZ13581837 was examined in IVGTT in GPR120 null mice. GPR120 agonist doses were selected to reach plasma levels of at least 10 times over the in vitro EC50 value to achieve maximal activation of GPR120 (S2 Appendix). Thirty minutes prior to the glucose load, the mice were anaesthetised (20 mg/kg fluanisone/0.8 mg/kg fentanyl (Hypnorm®, Janssen, Beerse, Belgium) and 10 mg/kg midazolam (Dormicum®, Hoffman-LaRoche, Basel, Switzerland)) to allow for rapid blood sampling. The mice were kept at a heating pad to maintain body temperature.
In the IVGTT, the acute insulin response (AIR) was calculated as the mean of suprabasal 1 and 5 min values, and the glucose elimination was quantified using the glucose elimination constant (KG) calculated as the slope of the logarithmic transformation of circulating glucose between 1 and 20 min after the glucose bolus. Multiple comparisons between the different groups were performed by one-way ANOVA. Tukey’s or Bonferroni’s post hoc test were used to calculate statistical differences between the groups. […]

C#Cc1cc(Oc2cccnc2)cc(N2Cc3ccccc3S2(=O)=O)c1 [AZ13581837, 2-(3-ethynyl-5-(3-pyridyloxy)phenyl)-3H-1,2-benzothiazole 1,1-dioxide]
Glucose elimination in GPR120 null mice (IVGTT): no effect
Acute insulin secretion in GPR120 null mice (vs vehicle of same genotype): no effect

From paper PMC5716539, “The acute glucose lowering effect of specific GPR120 activation in mice is mainly driven by glucagon-like peptide 1” (PLoS ONE, 2017)
